In this test the test system is N134/RHAMM^B cells. The test is described as follows: tail vein liver metastasis model. In kind it is in vivo. The settings on record: 1.5 × 10^6 N134/RHAMM^B cells tail vein, NSG mice, 250 ppm CO 3 hours daily, 24 days. As to the method: NSG mice were injected with 0.1 million (FIGS. 3A-3B) or 5 × 10^4 (FIGS. 3C-3E) MDA-MB-231/TGL breast cancer cells through tail vein or 8988T/TGL pancreatic cancer cells through spleen (FIGS. 3F-3H). Mice were randomly divided into two groups after injection. One group of mice was kept in regular mouse holding room all the time while the other group was treated with 250 ppm CO for 3 hours daily starting one day after injection. FIGS. 3C and 3F: bioluminescent imaging was taken at day 0, day 1, day3 and then once a week and signals from the whole mice were plotted. FIGS. 3A, 3D and 3G: organs were harvested for histological analysis. Representative H&E stained images of metastatic tumors in the lung sections (FIGS. 3A and 3D) and in the liver sections (FIG. 3G) were shown. Metastatic tumor areas or numbers of mets on the H&E stained sections for each mouse were quantified (FIGS. 3B, 3E and 3H).
In another experiment, immunodeficient NOD/scid-IlL2Rgc knockout mice were injected with 1.5 × 10^6 N134/RHAMM^B cells in 120 µl PBS via tail veins. Tumors developed 24 days after injection with 1.5 × 10^6 N134/RHAMM^B cells, and livers were assessed.

Turning to `[C-]#[O+]` [CO, Carbon monoxide], the “total metastatic pancreatic tumor burden in the liver” value is “showed a trend to reduce”. The liver metastases result (vs untreated controls) is “reduced”.

The values above are taken from US20230346831A1, “METHODS FOR TREATING […] USING LOW DOSE CARBON MONOXIDE” (priority 2020, published 2023).
